The text below walks through data of ChEMBL document CHEMBL4152237, “Identification of novel β-lactams and pyrrolidinone derivatives as selective Histamine-3 receptor (H3R) modulators as possible anti-obesity agents” (Eur J Med Chem, 2018).

The structures appear in SMILES notation. The source made the active and inactive calls. Unless noted, no cut-off for these calls is given here.

Series [1] can be described thus: Octanol/water partition co-efficient, log P of the compound after 24 hrs by HPLC based shake-flask method. It is filed as physicochemical.
Series [2] has as its target T1, Histamine H3 receptor (Homo sapiens, UniProt Q9Y5N1). Put plainly: Agonist activity at human H3R expressed in HEK293 cells harboring glosensor-22F cAMP plasmid DNA assessed as inhibition of forskolin-stimulated cAMP accumulation preincubated with cells followed by forskolin addition measured after 10 mins by luminescence assay. It is filed as functional, cell-based. To be noted: read-out: EC50. (In general: Cyclic AMP is a second messenger, typically raised through Gs and lowered through Gi signalling.)

The target of series [3] is T1, Histamine H3 receptor. Nature of the series: Agonist activity at human H3R expressed in HEK293 cells harboring glosensor-22F cAMP plasmid DNA assessed as inhibition of forskolin-stimulated cAMP accumulation at 1 uM preincubated with cells followed by forskolin addition measured after 10 mins in presence of H3R antagonist GSK334429 by luminescence assay. The format is functional, cell-based.

In series [4] the target is T2, 5-hydroxytryptamine receptor 2C (Homo sapiens) (UniProt P28335).
T2 sequence (whole entry): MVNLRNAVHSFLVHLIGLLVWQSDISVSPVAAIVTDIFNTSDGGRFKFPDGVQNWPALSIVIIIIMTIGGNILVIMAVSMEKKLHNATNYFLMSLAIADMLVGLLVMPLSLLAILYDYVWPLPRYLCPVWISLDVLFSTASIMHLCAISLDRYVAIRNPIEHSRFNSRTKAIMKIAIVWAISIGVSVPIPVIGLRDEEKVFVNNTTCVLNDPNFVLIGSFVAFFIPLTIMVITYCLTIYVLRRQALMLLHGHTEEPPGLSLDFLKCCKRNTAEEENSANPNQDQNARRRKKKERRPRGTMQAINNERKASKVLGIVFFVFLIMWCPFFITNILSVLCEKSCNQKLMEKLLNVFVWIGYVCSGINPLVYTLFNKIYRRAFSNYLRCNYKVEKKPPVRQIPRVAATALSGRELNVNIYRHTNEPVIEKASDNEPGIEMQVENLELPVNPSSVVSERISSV
Nature of the series: Agonist activity at human 5-HT2C expressed in HEK293 cells harboring luc2P/NFAT-RE plasmid at 10 uM after 6 to 8 hrs by luciferase reporter gene assay. It is filed as functional, cell-based. A general note: A reporter such as luciferase makes a cellular process visible.

For series [5], the target named is Histamine H1 receptor (Homo sapiens) (UniProt P35367). Nature of the series: Agonist activity at H1R (unknown origin) expressed in HEK293 cells harboring luc2P/NFAT-RE plasmid at 10 uM after 6 to 8 hrs by luciferase reporter gene assay. The format is functional, cell-based.
Chain of Histamine H1 receptor (Homo sapiens) (P35367 whole entry): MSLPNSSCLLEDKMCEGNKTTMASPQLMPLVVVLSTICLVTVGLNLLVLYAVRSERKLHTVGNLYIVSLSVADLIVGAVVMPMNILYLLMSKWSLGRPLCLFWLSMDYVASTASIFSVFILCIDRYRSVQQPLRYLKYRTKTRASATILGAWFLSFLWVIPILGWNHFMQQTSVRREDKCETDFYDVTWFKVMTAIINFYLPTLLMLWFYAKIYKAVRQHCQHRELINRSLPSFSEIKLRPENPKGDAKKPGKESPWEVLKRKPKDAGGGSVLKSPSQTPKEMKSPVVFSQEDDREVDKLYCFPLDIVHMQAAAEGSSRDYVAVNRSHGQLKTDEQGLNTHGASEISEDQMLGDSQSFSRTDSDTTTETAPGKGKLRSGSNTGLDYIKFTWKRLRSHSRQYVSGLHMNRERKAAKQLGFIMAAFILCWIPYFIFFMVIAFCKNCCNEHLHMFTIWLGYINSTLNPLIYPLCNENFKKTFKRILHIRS
In series [6] the target is Histamine H2 receptor (Homo sapiens) (UniProt P25021). Nature of the series: Agonist activity at H2R (unknown origin) expressed in HEK293 cells harboring glosensor-22F cAMP plasmid DNA assessed as inhibition of forskolin-stimulated cAMP accumulation at 10 uM preincubated with cells followed by forskolin addition measured after 10 mins by luminescence assay. The format is functional, cell-based.
Chain of Histamine H2 receptor (Homo sapiens) (P25021 whole entry): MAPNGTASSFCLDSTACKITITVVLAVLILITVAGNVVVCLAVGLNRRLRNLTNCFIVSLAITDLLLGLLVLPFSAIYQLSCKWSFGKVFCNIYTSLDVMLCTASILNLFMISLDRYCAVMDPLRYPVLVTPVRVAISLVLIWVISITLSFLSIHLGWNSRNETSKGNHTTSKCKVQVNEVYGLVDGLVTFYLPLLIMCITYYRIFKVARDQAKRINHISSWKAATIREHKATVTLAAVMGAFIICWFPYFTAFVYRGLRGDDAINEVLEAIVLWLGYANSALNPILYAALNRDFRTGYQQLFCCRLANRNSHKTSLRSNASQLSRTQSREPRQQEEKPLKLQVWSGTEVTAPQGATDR

Series [7] addresses Histamine H4 receptor (Homo sapiens) (UniProt Q9H3N8). Nature of the series: Agonist activity at H4R (unknown origin) expressed in HEK293 cells harboring glosensor-22F cAMP plasmid DNA assessed as inhibition of forskolin-stimulated cAMP accumulation at 10 uM preincubated with cells followed by forskolin addition measured after 10 mins by luminescence assay. It is filed as functional, cell-based.

Series [8] deals with Luciferin 4-monooxygenase (Photinus pyralis) (UniProt P08659). Put plainly: Inhibition of firefly luciferase activity expressed in HEK293 cells assessed as reduction in forskolin-stimulated cAMP accumulation up to 10 uM preincubated with cells followed by forskolin addition measured after 10 mins by luminescence assay. It is filed as cell-based.
Chain of Luciferin 4-monooxygenase (Photinus pyralis) (P08659 whole entry): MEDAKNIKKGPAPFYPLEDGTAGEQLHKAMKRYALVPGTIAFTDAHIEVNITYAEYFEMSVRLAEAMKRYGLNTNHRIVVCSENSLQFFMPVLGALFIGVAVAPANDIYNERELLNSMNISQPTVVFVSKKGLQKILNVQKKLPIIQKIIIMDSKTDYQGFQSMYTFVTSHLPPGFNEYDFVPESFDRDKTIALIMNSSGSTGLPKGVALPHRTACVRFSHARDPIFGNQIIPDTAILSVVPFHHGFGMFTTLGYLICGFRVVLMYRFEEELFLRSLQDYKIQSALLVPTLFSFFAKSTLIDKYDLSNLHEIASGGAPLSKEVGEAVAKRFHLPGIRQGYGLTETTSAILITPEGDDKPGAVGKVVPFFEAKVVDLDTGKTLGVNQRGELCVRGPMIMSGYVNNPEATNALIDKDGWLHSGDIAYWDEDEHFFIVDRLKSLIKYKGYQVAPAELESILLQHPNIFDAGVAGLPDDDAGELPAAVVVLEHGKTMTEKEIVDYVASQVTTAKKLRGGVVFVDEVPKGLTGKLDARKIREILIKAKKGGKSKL
Another series concerns HEK-293T. Put plainly: Cytotoxicity against HEK293T cells assessed as reduction in cell viability at 1 to 10 uM after 24 hrs by XTT assay. It is filed as cell-based. To be noted: human. (In general: Tetrazolium assays rely on reduction of a dye to a coloured formazan, in cell work by metabolically active cells.)
For series [9], the target named is Histamine H1 receptor (Homo sapiens) (UniProt P35367). Nature of the series: Antagonist activity at H1R (unknown origin) expressed in HEK293 cells harboring luc2P/NFAT-RE plasmid at 10 uM after 6 to 8 hrs by luciferase reporter gene assay. It is filed as functional, cell-based.
The target in series [10] is Histamine H2 receptor (Homo sapiens) (UniProt P25021). Put plainly: Antagonist activity at H2R (unknown origin) expressed in HEK293 cells harboring glosensor-22F cAMP plasmid DNA assessed as effect on forskolin-stimulated cAMP accumulation at 10 uM preincubated with cells followed by forskolin addition measured after 10 mins by luminescence assay. The format is functional, cell-based.

Series [11] has as its target Histamine H4 receptor (Homo sapiens) (UniProt Q9H3N8). Put plainly: Antagonist activity at H4R (unknown origin) expressed in HEK293 cells harboring glosensor-22F cAMP plasmid DNA assessed as effect on forskolin-stimulated cAMP accumulation at 10 uM preincubated with cells followed by forskolin addition measured after 10 mins by luminescence assay. It is filed as functional, cell-based.

Series [12] deals with T2, 5-hydroxytryptamine receptor 2C (Homo sapiens). Nature of the series: Antagonist activity at human 5-HT2C expressed in HEK293 cells harboring luc2P/NFAT-RE plasmid at 10 uM after 6 to 8 hrs by luciferase reporter gene assay. The format is functional, cell-based.

Chain of Histamine H4 receptor (Homo sapiens) (Q9H3N8 whole entry): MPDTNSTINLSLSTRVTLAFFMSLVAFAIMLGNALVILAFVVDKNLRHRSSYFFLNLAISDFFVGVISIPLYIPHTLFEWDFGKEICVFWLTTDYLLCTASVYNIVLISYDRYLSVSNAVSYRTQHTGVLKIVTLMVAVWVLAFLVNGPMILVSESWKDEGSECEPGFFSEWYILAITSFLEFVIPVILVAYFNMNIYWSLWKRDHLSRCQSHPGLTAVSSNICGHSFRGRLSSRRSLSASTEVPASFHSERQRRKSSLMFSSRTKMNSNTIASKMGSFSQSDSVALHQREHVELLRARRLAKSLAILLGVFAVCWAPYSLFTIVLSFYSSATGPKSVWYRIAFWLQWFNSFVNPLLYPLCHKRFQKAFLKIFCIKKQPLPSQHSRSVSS
T1 sequence (Q9Y5N1 whole entry): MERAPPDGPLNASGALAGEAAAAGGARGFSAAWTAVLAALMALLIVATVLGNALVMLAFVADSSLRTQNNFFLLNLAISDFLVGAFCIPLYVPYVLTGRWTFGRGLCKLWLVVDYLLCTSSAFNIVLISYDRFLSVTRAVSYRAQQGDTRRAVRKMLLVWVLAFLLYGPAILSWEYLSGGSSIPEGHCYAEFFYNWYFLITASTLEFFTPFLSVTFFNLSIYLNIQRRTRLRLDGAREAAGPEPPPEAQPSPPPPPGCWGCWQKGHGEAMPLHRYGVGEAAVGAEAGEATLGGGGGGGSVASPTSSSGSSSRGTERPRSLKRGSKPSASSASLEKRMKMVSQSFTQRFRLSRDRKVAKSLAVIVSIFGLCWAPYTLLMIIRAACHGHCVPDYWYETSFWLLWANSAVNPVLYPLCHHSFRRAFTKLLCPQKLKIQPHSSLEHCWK

Broadly, the logP is a log measure of how a compound divides between an organic and an aqueous phase. Read a low logP as lower lipophilicity. The term EC50 denotes the concentration that produces a half-maximal response. In the case of `O=C1C=C[C@]23C(c4ccccc4)=CC(=O)N2[C@H](c2ccc([N+](=O)[O-])cc2)C(=O)N[C@@H]3C1`, the logP at 24 h in series [1] stood at 1.78. In addition, the 50% effective concentration (EC50) at Histamine H3 receptor [2] stood at 0.3 nM. In addition, the inhibition result (at Histamine H3 receptor [3]; in [6]; in [7]; in series [8]; in series [9]; in [10]) was “inactive” each time. The inhibition result in [11] and in series [12] was “inactive” throughout. For the same molecule, the outcome in series [4] and in [5] was inactive. In addition, the Activity entry in the series with HEK-293T is “Non-Toxic”.

Turning to `O=C1C=C[C@]23C(c4ccccc4)=CC(=O)N2[C@H](c2ccc(C(F)(F)F)cc2)C(=O)N[C@@H]3C1`, in series [1], the logP at 24 h turned out to be 2.1. At Histamine H3 receptor [2], the 50% effective concentration (EC50) stood at 94 nM. Further, the inhibition entry (at Histamine H3 receptor [3]; in series [6]; in [7]; in series [8]; in [9]; in series [10]) was “inactive” each time. Besides, the inhibition result in [11] and in series [12] was “inactive” in each case. The outcome in series [4] and in series [5] was inactive. Besides, the Activity entry in the series on HEK-293T is “Non-Toxic”.

In turn, `COc1ccc(NC2(c3cccc(Cl)c3)C(=O)N(C3CCCCC3)C(=O)/C2=C/c2ccccc2)cc1OC` (stereo unspecified) gave a log partition coefficient (logP) at 24 h in [1] of 2.45. Moreover, at Histamine H3 receptor [2], the EC50 amounted to 2.7 nM. Moreover, the inhibition entry (on Histamine H3 receptor [3]; in series [6]; in series [7]; in series [8]; in series [9]; in [10]) was “inactive” throughout. For the same molecule, the inhibition entry in [11] and in series [12] was “inactive” each time. In addition, the outcome in [4] and in [5] was inactive. Also, the Activity result in the series on HEK-293T is on record as “Non-Toxic”.

On to `COc1ccc(C(C(=O)NC2CCCCC2)N2C(=O)C(c3ccc(C(F)(F)F)cc3)=C(c3ccccc3)C23C=CC(=O)C=C3)c(OC)c1OC` (stereo unspecified), for which the logP at 24 h in [1] was 2.74. Also, the concentration giving a half-maximal response (EC50) on Histamine H3 receptor [2] was 13 nM. In addition, the inhibition entry (on Histamine H3 receptor [3]; in [6]; in series [7]; in series [8]; in [9]; in [10]) was “inactive” in each case. Moreover, the inhibition entry in [11] and in [12] was “inactive” each time. Besides, the outcome in series [4] and in series [5] was inactive. The Activity result with HEK-293T was “Non-Toxic”.

Consider `COc1ccc(N2C(=O)C(=Cc3ccccc3)C2(C(=O)NC2CCCCC2)c2cc(F)c(F)c(F)c2)cc1` (stereo unspecified), for which the EC50 at Histamine H3 receptor [2] worked out at 0.1 nM. Moreover, the inhibition result (at Histamine H3 receptor [3]; in series [6]; in [7]; in series [8]; in [9]; in series [10]) was “inactive” in each case. Also, the inhibition result in series [11] and in series [12] was “inactive” throughout. Further, the result in series [4] and in series [5] was inactive. Also, the Activity entry in the series on HEK-293T was “Non-Toxic”.

For `COc1cc(N2C(=O)C(=Cc3ccccc3)C2(C(=O)NC2CCCCC2)c2ccc(F)cc2)cc(OC)c1OC` (stereo unspecified), the log partition coefficient (logP) at 24 h in series [1] stood at 1.85. Moreover, at Histamine H3 receptor [2], the EC50 was determined as 104 nM. Also, the inhibition entry (on Histamine H3 receptor [3]; in series [6]; in series [7]; in series [8]; in series [9]; in series [10]) was “inactive” each time. Moreover, the inhibition entry in series [11] and in series [12] was “inactive” each time. Besides, the outcome in series [4] and in series [5] was inactive. Besides, in the series on HEK-293T, the Activity entry is reported as “Non-Toxic”.

Take `COC1=CC2(C=C(OC)C1=O)C(c1ccccc1)=C(c1ccc(C(F)(F)F)cc1)C(=O)N2C(C(=O)NC1CCCCC1)c1ccc(OC)c(OC)c1OC` (stereo unspecified): the EC50 at Histamine H3 receptor [2] came out at 6.7 nM. Further, the inhibition entry (on Histamine H3 receptor [3]; in series [6]; in [7]; in series [8]; in series [9]; in series [10]) was “inactive” throughout. In addition, the inhibition result in [11] and in [12] was “inactive” in each case. Besides, the outcome in series [4] and in series [5] was inactive. Moreover, the Activity result with HEK-293T was “Non-Toxic”.

`COc1cc(N2C(=O)C(=Cc3ccccc3)C2(C(=O)NC(C)(C)C)c2cc(F)cc(F)c2)cc(OC)c1OC` (stereo unspecified) gave a logP at 24 h in [1] of 2.34. At Histamine H3 receptor [2], the 50% effective concentration (EC50) came to 0.3 nM. The inhibition result (at Histamine H3 receptor [3]; in series [6]; in [7]; in [8]; in [9]; in series [10]) was “inactive” in each case. Also, the inhibition entry in [11] and in series [12] was “inactive” throughout. Further, the outcome in [4] and in series [5] was inactive. Further, the Activity entry in the series with HEK-293T is “Non-Toxic”.

Consider `COc1cc(NC2(c3ccc(Br)cc3)C(=O)N(C(C)(C)C)C(=O)/C2=C/c2ccccc2)cc(OC)c1OC` (stereo unspecified), for which, on Histamine H3 receptor [2], the 50% effective concentration (EC50) was 5.7 nM. Also, the inhibition result (on Histamine H3 receptor [3]; in series [6]; in series [7]; in [8]; in [9]; in series [10]) was “inactive” in each case. Besides, the inhibition entry in series [11] and in series [12] was “inactive” each time. The outcome in series [4] and in [5] was inactive. The Activity entry with HEK-293T was “Non-Toxic”.

`COc1ccc(C2=C(c3ccccc3)C3(C=CC(=O)C=C3)N(C(C(=O)NC3CCCCC3)c3cc4c(cc3Br)OCO4)C2=O)cc1` (stereo unspecified): the EC50 at Histamine H3 receptor [2] is 14.4 nM. Besides, the inhibition entry (on Histamine H3 receptor [3]; in series [6]; in [7]; in series [8]; in series [9]; in series [10]) was “inactive” in each case. The inhibition entry in series [11] and in [12] was “inactive” each time. Further, the outcome in [4] and in [5] was inactive. The Activity entry with HEK-293T is on record as “Non-Toxic”.
